The values below come from patent US20250230193A1, “CYCLIC COMPOUND HAVING SELECTIVE KRAS INHIBITORY EFFECT ON HRAS AND NRAS” (CHUGAI SEIYAKU KABUSHIKI KAISHA, priority 2022, published 2025).

Molecules are shown by their SMILES. *1 amine or outer side, *2 acyl side, *3 side chain or, on linkers, in order; H or OH if unused. Where a SMILES comes first, the peptide text is derived from it. Bridges are numbered along the chain shown (N, C = ends). [ ]: non-standard residue; d: D form. The star is where a group is joined. hPhe(3-Cl-4-CF3) = N[C@@H](CCc1ccc(C(F)(F)F)c(Cl)c1)C(=O)O; NPrPhe(4-CF3) = CCCN[C@@H](Cc1ccc(C(F)(F)F)cc1)C(=O)O; X39 = Cc1ccc(C[C@@H](C(=O)[*:2])N(CC(C)C)[*:1])cc1; X49 = Cc1ccc(C[C@@H](C(=O)[*:2])N(CC2CC2)[*:1])cc1; X19 = CCCCN([C@@H](Cc1ccc(C)cc1)C(=O)[*:2])[*:1]; NPrPhe(4-Me) = CCCN[C@@H](Cc1ccc(C)cc1)C(=O)O; NMeGly(cPent) = CN[C@H](C(=O)O)C1CCCC1; NMeD = CN[C@@H](CC(=O)O)C(=O)O; NMeL = CN[C@@H](CC(C)C)C(=O)O; Morpholide = C1CN(*)CCO1; NMeA = CN[C@@H](C)C(=O)O; Ac5c = NC1(C(=O)O)CCCC1; Aze = O=C(O)[C@@H]1CCN1; NEtG = CCNCC(=O)O; Sar = CNCC(=O)O

Assay [1] has as its target GDP-bound HRAS wild-type protein (Homo sapiens, UniProt P01112). Put plainly: Binding to HRAS by surface plasmon resonance (SPR), Single Cycle Kinetics. As to conditions: KD ratio HRAS/KRAS, SPR.
For assay [2], the target named is GDP-bound NRAS wild-type protein (Homo sapiens, UniProt P01111). As to the kind of experiment: Binding to NRAS by surface plasmon resonance (SPR), Single Cycle Kinetics. Conditions: KD ratio NRAS/KRAS, SPR. (In general: SPR reads the build-up and loss of mass on a sensor chip optically.)
GDP-bound NRAS wild-type protein, sequence (P01111 whole entry): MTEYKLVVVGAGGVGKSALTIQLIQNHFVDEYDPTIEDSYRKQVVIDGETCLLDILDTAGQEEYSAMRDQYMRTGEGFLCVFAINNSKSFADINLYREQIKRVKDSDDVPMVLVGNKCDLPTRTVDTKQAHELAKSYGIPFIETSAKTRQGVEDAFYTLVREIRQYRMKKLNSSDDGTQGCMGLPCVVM

GDP-bound HRAS wild-type protein, sequence (P01112 whole entry): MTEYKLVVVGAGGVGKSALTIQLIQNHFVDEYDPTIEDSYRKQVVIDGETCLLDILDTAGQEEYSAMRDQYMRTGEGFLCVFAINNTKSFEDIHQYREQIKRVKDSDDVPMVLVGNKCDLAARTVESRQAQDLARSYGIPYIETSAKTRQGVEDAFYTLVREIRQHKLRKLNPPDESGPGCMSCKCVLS

Turning to `CCCCN1C(=O)[C@@H]2CCN2C(=O)[C@H](C)N(C)C(=O)[C@H]([C@@H](C)CC)NC(=O)[C@H](CC(C)C)N(C)C(=O)C[C@@H](C(=O)N2CCOCC2)N(C)C(=O)[C@H](C2CCCC2)N(C)C(=O)C2(CCCC2)NC(=O)[C@@H]2CCCN2C(=O)[C@H](CCc2ccc(C(F)(F)F)c(Cl)c2)NC(=O)CN(C)C(=O)[C@@H]1Cc1ccc(C)cc1` [PP0055] ([NMeL]I[NMeA][Aze][X19][Sar][hPhe(3-Cl-4-CF3)]P[Ac5c][NMeGly(cPent)][NMeD]-Morpholide; lactam N-11), the “HRAS/KRAS (ratio of KD for GDP-bound HRAS wild-type to KD for KRAS)” value in assay [1] is “C (A compound having a KD ratio of 0.1 or more and less than 3 is denoted as C)”. Moreover, the “NRAS/KRAS (ratio of KD for GDP-bound NRAS wild-type to KD for KRAS)” value in assay [2] was “C (A compound having a KD ratio of 0.1 or more and less than 3 is denoted as C)”.

As for `CC[C@H](C)[C@@H]1NC(=O)[C@H](CC(C)C)N(C)C(=O)C[C@@H](C(=O)N2CCOCC2)N(C)C(=O)[C@H](C2CCCC2)N(C)C(=O)C2(CCCC2)NC(=O)[C@@H]2CCCN2C(=O)[C@H](CCc2ccc(C(F)(F)F)c(Cl)c2)NC(=O)CN(C)C(=O)[C@H](Cc2ccc(C)cc2)N(CC(C)C)C(=O)[C@@H]2CCN2C(=O)[C@H](C)N(C)C1=O` [PP0056] ([NMeL]I[NMeA][Aze][X39][Sar][hPhe(3-Cl-4-CF3)]P[Ac5c][NMeGly(cPent)][NMeD]-Morpholide; lactam N-11), the “HRAS/KRAS (ratio of KD for GDP-bound HRAS wild-type to KD for KRAS)” value in assay [1] was “B (a compound having 3 or more and less than 10 is denoted as B)”. The “NRAS/KRAS (ratio of KD for GDP-bound NRAS wild-type to KD for KRAS)” value in assay [2] was “C (A compound having a KD ratio of 0.1 or more and less than 3 is denoted as C)”.

Consider `CC[C@H](C)[C@@H]1NC(=O)[C@H](CC(C)C)N(C)C(=O)C[C@@H](C(=O)N2CCOCC2)N(C)C(=O)[C@H](C2CCCC2)N(C)C(=O)C2(CCCC2)NC(=O)[C@@H]2CCCN2C(=O)[C@H](CCc2ccc(C(F)(F)F)c(Cl)c2)NC(=O)CN(C)C(=O)[C@H](Cc2ccc(C)cc2)N(CC2CC2)C(=O)[C@@H]2CCN2C(=O)[C@H](C)N(C)C1=O` [PP0057] ([NMeL]I[NMeA][Aze][X49][Sar][hPhe(3-Cl-4-CF3)]P[Ac5c][NMeGly(cPent)][NMeD]-Morpholide; lactam N-11), for which the “HRAS/KRAS (ratio of KD for GDP-bound HRAS wild-type to KD for KRAS)” value in assay [1] is “B (a compound having 3 or more and less than 10 is denoted as B)”. Moreover, the “NRAS/KRAS (ratio of KD for GDP-bound NRAS wild-type to KD for KRAS)” value in assay [2] is “C (A compound having a KD ratio of 0.1 or more and less than 3 is denoted as C)”.

As for `CCCN1C(=O)[C@@H]2CCN2C(=O)[C@H](C)N(C)C(=O)[C@H]([C@@H](C)CC)NC(=O)[C@H](CC(C)C)N(C)C(=O)C[C@@H](C(=O)N2CCOCC2)N(C)C(=O)[C@H](C2CCCC2)N(C)C(=O)C2(CCCC2)NC(=O)[C@@H]2CCCN2C(=O)[C@H](CCc2ccc(C(F)(F)F)c(Cl)c2)NC(=O)CN(CC)C(=O)[C@@H]1Cc1ccc(C)cc1` [PP0058] ([NMeL]I[NMeA][Aze][NPrPhe(4-Me)][NEtG][hPhe(3-Cl-4-CF3)]P[Ac5c][NMeGly(cPent)][NMeD]-Morpholide; lactam N-11), the “HRAS/KRAS (ratio of KD for GDP-bound HRAS wild-type to KD for KRAS)” value in assay [1] is “C (A compound having a KD ratio of 0.1 or more and less than 3 is denoted as C)”. The “NRAS/KRAS (ratio of KD for GDP-bound NRAS wild-type to KD for KRAS)” value in assay [2] was “C (A compound having a KD ratio of 0.1 or more and less than 3 is denoted as C)”.

In the case of `CCCN1C(=O)CN(C)C(=O)CN(C)C(=O)[C@H]([C@@H](C)CC)NC(=O)[C@H](CC(C)C)N(C)C(=O)C[C@@H](C(=O)N2CCOCC2)N(C)C(=O)[C@H](C2CCCC2)N(C)C(=O)C2(CCCC2)NC(=O)[C@@H]2CCCN2C(=O)[C@H](CCc2ccc(C(F)(F)F)c(Cl)c2)NC(=O)CN(C)C(=O)[C@@H]1Cc1ccc(C)cc1` [PP0059] ([NMeL]I[Sar][Sar][NPrPhe(4-Me)][Sar][hPhe(3-Cl-4-CF3)]P[Ac5c][NMeGly(cPent)][NMeD]-Morpholide; lactam N-11), the “HRAS/KRAS (ratio of KD for GDP-bound HRAS wild-type to KD for KRAS)” value in assay [1] is “C (A compound having a KD ratio of 0.1 or more and less than 3 is denoted as C)”. For the same compound, the “NRAS/KRAS (ratio of KD for GDP-bound NRAS wild-type to KD for KRAS)” value in assay [2] is “B (a compound having 3 or more and less than 10 is denoted as B)”.

As for `CCCN1C(=O)CN(C)C(=O)CN(C)C(=O)[C@H]([C@@H](C)CC)NC(=O)[C@H](CC(C)C)N(C)C(=O)C[C@@H](C(=O)N2CCOCC2)N(C)C(=O)[C@H](C2CCCC2)N(C)C(=O)C2(CCCC2)NC(=O)[C@@H]2CCCN2C(=O)[C@H](CCc2ccc(C(F)(F)F)c(Cl)c2)NC(=O)CN(C)C(=O)[C@@H]1Cc1ccc(C(F)(F)F)cc1` [PP0060] ([NMeL]I[Sar][Sar][NPrPhe(4-CF3)][Sar][hPhe(3-Cl-4-CF3)]P[Ac5c][NMeGly(cPent)][NMeD]-Morpholide; lactam N-11), the “HRAS/KRAS (ratio of KD for GDP-bound HRAS wild-type to KD for KRAS)” value in assay [1] was “B (a compound having 3 or more and less than 10 is denoted as B)”. Also, the “NRAS/KRAS (ratio of KD for GDP-bound NRAS wild-type to KD for KRAS)” value in assay [2] was “B (a compound having 3 or more and less than 10 is denoted as B)”.
